Data set [1] concerns interferon-induced mechanical hypersensitivity in mice. As to the kind of experiment: Von Frey assay, hindpaw IFNβ injection model. Type of data set: in vivo. The text has this:
While the CFA model promotes both peripheral interferon and cytokine signaling. the inventors wanted to investigate the role of ILF3 inhibition in a model of isolated interferon signaling to better understand its role in virus-induced hypersensitivity. For this, the inventors implemented hindpaw interferon β (IFNβ) injections. The inventors compared mechanical thresholds between a group of female mice that received no IFNβ injection and daily saline (Naïve-Saline), a group that received a single IFNβ injection and daily saline (IFNβ-Saline). and a group that received a single IFNβ injection and immediate daily administration of YM155 (5 mg/kg i.p. BID: IFNβ-YM155). […] The inventors therefore performed an experiment in which a Naïve-Saline and IFNβ-Saline group began receiving YM155 (2.5 mg/kg i.p. BID) after mechanical thresholds were taken one day after intraplantar injections. […] ILF3 inhibition is effective at suppressing interferon-induced hypersensitivity in both mouse sexes. […]
(§1) Hamsters/mice were placed on a raised grid platform in plastic containers and were allowed to habituate to their environment for a minimum of 10 minutes. Afterwards, filaments of ascending forces were applied to the left hindpaw and responses were recorded. […] Progression to the next filament was determined by recording of positive or negative responses for three out of five applications with each filament. […]

Data set [2] concerns CFA model of peripheral inflammation in female mice. In words: Hargreaves' thermal beam assay, CFA model. In kind it is in vivo. Particulars: 5 mg/kg i.p. QD, vs saline. The method, then: (§2) The inventors used the CFA model of peripheral inflammation in female mice to determine the impact of ILF3 inhibition in sensory hypersensitivity behaviors associated with inflammatory pain states. […] To identify any immediate analgesic effects of YM155 under local, peripheral inflammation conditions, the inventors first tested CFA-injected mice in the Von Frey and Hargreave's assays at 30 minutes post-drug administration.
(§3) The inventors also tested whether YM155 had sustained effects on sensory hypersensitivity after the expected window of activity (approximately 24 hours post-injection, based on a ˜one hour half-life in intravenously-treated mice).
(§4) For studies using models of peripheral inflammation, two-to three-month old mice received 30 μL left hindpaw injections of Complete Freund's Adjuvant (CFA: diluted 1:1 in saline) or IFNB injections (300 U per 25 μL), as described previously. For studies using the post-operative incision model, two-to three-month-old mice received an incision from the posterior plantar surface of the hindpaw to the middle of the paw pads, in which dermis and superficial muscle was cut and dermis was sutured afterwards. […]
The CFA model induces thermal hypersensitivity for 10-14 days on average. […] Three measurements were recorded and averaged for each hindpaw, with each measurement taking place at least two minutes apart.

The nature of data set [3]: Body weight during YM155 administration, CFA model. In kind it is in vivo, mice. Particulars: 5 mg/kg i.p. QD; first 9 days of treatment. As for the experimental part: as §3
For studies using models of peripheral inflammation, two-to three-month old mice received 30 μL left hindpaw injections of Complete Freund's Adjuvant (CFA: diluted 1:1 in saline) or IFNB injections (300 U per 25 μL), as described previously. For studies using the post-operative incision model, two-to three-month-old mice received an incision from the posterior plantar surface of the hindpaw to the middle of the paw pads, in which dermis and superficial muscle was cut and dermis was sutured afterwards. CFA and paw incision groups of mice received daily intraperitoneal (i.p.) injections of saline (vehicle) or YM155 (Tocris Biosciences), an Interleukin Enhancer Binding Factor 3 (ILF3) inhibitor (2.5 or 5 mg/kg diluted in saline).

Data set [4] relates to CFA model of peripheral inflammation in female mice. As to the kind of experiment: Von Frey assay, CFA model. Conditions: 5 mg/kg i.p. QD, vs saline. Type of data set: in vivo. The method, then: as §2, §3
For studies using models of peripheral inflammation, two-to three-month old mice received 30 μL left hindpaw injections of Complete Freund's Adjuvant (CFA: diluted 1:1 in saline) or IFNB injections (300 U per 25 μL), as described previously. […]
as §1

The test system of data set [5] is paw incision model mice. In words: Locomotor activity after paw incision. Type of data set: in vivo. Conditions: Day 1 post-paw incision; YM155 vs saline. As for the experimental part:
(§5) The inventors also tested whether YM155 could be used to prophylactically reduce pain experienced after acute post-operative injuries. For this, the inventors used the paw incision model and pre-treated animals at a dose of 5 mg/kg i.p, for seven days. Animals were not treated with drug after the incision.

The test system of data set [6] is paw incision model mice. As to the kind of experiment: Von Frey assay, paw incision model (pre-treatment). In kind it is in vivo. Particulars: pre-treatment 5 mg/kg i.p. for seven days; no drug after incision; vs saline. As for the experimental part:
as §5, §4, §1

Data set [7] relates to mice. In words: Toxicity observed on dosing in mice. Type of data set: in vivo.
For data set [8] the following is noted: intravenously-treated mice; cited from earlier work.
Where [9] appears, read: CFA-injected female mice, 30-60 minutes after administration.

“Also recorded” adds a separate entry of the source.

With `COCCn1c2c([n+](Cc3cnccn3)c1C)C(=O)c1ccccc1C2=O` [YM155], the “interferon-induced mechanical hypersensitivity (mechanical thresholds)” value in data set [1] (female mice, hindpaw IFNβ 300U/25 μL, concurrent YM155 5 mg/kg i.p., days 1 and 3 after IFNβ, 5 mg/kg) is listed as “interrupted the onset of interferon-induced mechanical hypersensitivity; also recorded: no change in thresholds”. For the same molecule, the “mechanical thresholds, IFNβ group” value in data set [1] (male mice, 2.5 mg/kg i.p. BID started one day after intraplantar injection, by day three) is “substantial increase in mechanical thresholds”. In addition, in data set [2] (CFA mice, ~24 hours post-injection, six consecutive days of administration (PD-D6)), the “thermal thresholds / Hargreaves' withdrawal latency, sustained” value is listed as “increased thermal thresholds in a sustained fashion; also recorded: significantly higher withdrawal latency”. Further, the “thermal thresholds / Hargreaves' response times” value in data set [2] (setting [9]) is on record as “increased thermal thresholds; also recorded: increased Hargreaves' response times”. For the same molecule, the post-CFA weight entry in data set [3] was “No changes in post-CFA weight were observed”. The “mechanical thresholds (von Frey), sustained” value in data set [4] (CFA mice, ~24 hours after administration, PD-D5, PD-D7, PD-D9) is reported as “increased mechanical thresholds in a sustained fashion; also recorded: sustained recovery of mechanical thresholds”. The “mechanical (von Frey) thresholds” value in data set [4] (setting [9]) is given as “increased mechanical thresholds; also recorded: increased von Frey thresholds”. The “locomotion / locomotor activity” value in data set [5] was “No differences in locomotion were observed; also recorded: no changes in locomotor activity”. Further, the “mechanical hypersensitivity after paw incision” value in data set [6] is “significantly lower mechanical hypersensitivity after paw incision; also recorded: significant reduction in mechanical hypersensitivity”. Also, the toxicity result was “lethal toxicity” in data set [7] (female mice, 20 mg/kg); “did not observe toxicity” in data set [7] (male mice, 2.5 mg/kg i.p. BID); “increased sensitivity to the drug and subsequent toxicity” in data set [7] (male mice, 5 mg/kg dose). Also, the half-life entry in data set [8] is “one”.

These data come from patent publication US20250032483A1, “COMPOSITIONS AND METHODS FOR TREATING PAIN” (ICAHN SCHOOL OF MEDICINE AT MOUNT SINAI, priority 2021, published 2025).
